In the experiment the test system is patients with hypercholesterolemia at high CV risk not adequately controlled with atorvastatin (20 mg or 40 mg). The experiment is described as follows: Example 2: randomized, double-blind trial, lipid efficacy of mAb316P add-on to atorvastatin vs EZE add-on, atorvastatin dose doubling or switch to rosuvastatin. Format: in vivo, human. As to conditions: for LDL-C W24 % change from baseline, LS mean (SE): ITT population, treatment arm as labelled; for LDL-C W24 % change from baseline, LS mean (SE) / Proportion of Patients Reaching LDL-C goal (%) / reduced LDL-C levels by: week 24; for Proportion of Patients Reaching LDL-C goal (%): calculated LDL-C <70 mg/dL very high risk or <100 mg/dL high risk, combined estimate; for reduced LDL-C levels by: add-on mAb316P. The protocol: The present study was a randomized, double-blind, active-comparator, parallel-group study in patients at high CV risk with non-FH or heFH who are not adequately controlled with atorvastatin (20 mg or 40 mg) with or without other lipid-modifying therapy (LMT) (excluding EZE). The study design is illustrated in FIG. 1. Patients who entered the study were taking either atorvastatin 20 mg or atorvastatin 40 mg. The former patients were randomized to 1 of 3 treatment arms (arms 1 to 3); the latter patients were randomized to 1 of 4 treatment arms (arms 4 to 7). The treatment arms are as follows:
(1) mAb316P+atorvastatin 20 mg+placebo-EZE; (2) Placebo-mAb316P+atorvastatin 40 mg+placebo-EZE; and (3) Placebo-mAb316P+atorvastatin 20 mg+EZE 10 mg.
(4) mAb316P+atorvastatin 40 mg+placebo-EZE; (5) Placebo-mAb316P+atorvastatin 80 mg+placebo-EZE; (6). Placebo-mAb316P+rosuvastatin 40 mg+placebo-EZE; and (7) Placebo-mAb316P+atorvastatin 40 mg+EZE 10 mg.
(B) a double-blind treatment period of 24 weeks. Each patient received a SC injection Q2W (mAb316P or placebo-mAb316P) and was administered (or instructed to take) 2 oral blinded medications daily (a statin [atorvastatin or rosuvastatin] and EZE or placebo-EZE). The first injection of mAb316P or placebo-mAb316P was administered at the clinical site on day 1, after study assessments were completed, and as soon as possible after the patient was randomized into the study. The patient/caregiver administered subsequent injections outside of the clinic according to the dosing schedule. On days where the clinic study visit coincided with dosing, the dose of study drugs (injectable and oral) were administered after all study assessments had been performed and all laboratory samples collected. The last dose of mAb316P or placebo-mAb316P was administered at week 22. The last dose of daily oral study drugs was administered at week 24. At week 12, based on their baseline CV risk, certain patients randomized to mAb316P in a blinded manner, had their dose increased as follows:
Each patient received a subcutaneous (SC) injection once every two weeks (Q2W) (mAb316P or placebo-mAb316P) and took 2 oral blinded medications daily (a statin [atorvastatin or rosuvastatin] and EZE or placebo-EZE).
The injectable study treatment was a single SC injection of 1 mL for a 75 mg or 150 mg dose of mAb316P or placebo-mAb316P provided in an auto-injector, administered in the abdomen, thigh, or outer area of the upper arm. The first injection of study drug was administered at the clinical site, as soon as possible after the patient was randomized into the study. The patient was monitored at the clinical site for at least 30 minutes following the first injection. The patient/caregiver administered subsequent injections outside of the clinic, according to the dosing schedule. On days where the clinic study visit coincided with dosing, the dose of study drug was administered after all study assessments have been performed and all laboratory samples collected.
The dose of mAb316P was increased, in a blinded manner, from 75 mg to 150 mg SC Q2W, starting at week 12, based on baseline CV risk in the following circumstances:
The primary efficacy endpoint was the percent change in calculated LDL-C from baseline to week 24, which is defined as: 100× (calculated LDL-C value at week 24−calculated LDL-C value at baseline)/calculated LDL-C value at baseline. The baseline calculated LDL-C value was the last LDL-C level obtained before the first double-blind study drug injection. The calculated LDL-C at week 24 will be the LDL-C level obtained within the week 24 analysis window and during the main efficacy period. The main efficacy period was defined as the time from the first double-blind study drug injection up to 21 days after the last double-blind study drug injection or up to the upper limit of the week 24 analysis window, whichever comes first.
Total-C, HDL-C, TG, ApoB, ApoA-1, and Lp (a) were directly measured by a central laboratory. […]

Regarding “mAb316P + ATV 40: treatment arm: mAb316P 75/150 mg Q2W + atorvastatin 40 mg daily”, the “LDL-C W24 % change from baseline, LS mean (SE)” value (from here on “LDL-C W24 % change … (SE)”) was −54.0% and the “Proportion of Patients Reaching LDL-C goal (%)” value (“Proportion … (%)” below) is listed as 82.4%. For the same compound, where the note is “Week 4”, the “Calculated LDL-C LS mean (SE), % Change from Baseline” value is on record as −56.5 (2.8) %; the “Calculated LDL-C LS mean (SE), Change from Baseline” value is −63.2 (2.9); the “Calculated LDL-C LS mean (SE), Value (mg/dL)” value is listed as 45.5 (2.9) mg/dL. Further, under “Week 8”, the “Calculated LDL-C LS mean (SE), % Change from Baseline” value is reported as −55.7 (3.2) %; the “Calculated LDL-C LS mean (SE), Change from Baseline” value is recorded as −63.4 (3.3); the “Calculated LDL-C LS mean (SE), Value (mg/dL)” value was 45.3 (3.3) mg/dL. Where the note is “Week 12”, the “Calculated LDL-C LS mean (SE), % Change from Baseline” value was −50.5 (3.2) %; the “Calculated LDL-C LS mean (SE), Change from Baseline” value is on record as −56.9 (3.5); the “Calculated LDL-C LS mean (SE), Value (mg/dL)” value is 51.8 (3.5) mg/dL. Besides, where the note is “Week 16”, the “Calculated LDL-C LS mean (SE), % Change from Baseline” value is listed as −56.9 (3.5) %; the “Calculated LDL-C LS mean (SE), Change from Baseline” value was −64.3 (3.9); the “Calculated LDL-C LS mean (SE), Value (mg/dL)” value is recorded as 44.4 (3.9) mg/dL. For the same compound, under “Week 24”, the “Calculated LDL-C LS mean (SE), % Change from Baseline” value is on record as −54.0 (4.3) %; the “Calculated LDL-C LS mean (SE), Change from Baseline” value was −62.3 (4.6); the “Calculated LDL-C LS mean (SE), Value (mg/dL)” value is recorded as 46.4 (4.6) mg/dL.
In the case of `CC(C)c1c(C(=O)Nc2ccccc2)c(-c2ccccc2)c(-c2ccc(F)cc2)n1CC[C@@H](O)C[C@@H](O)CC(=O)O` [atorvastatin, reference compound], the “LDL-C W24 % change … (SE)” value runs as follows: (listed as ATV 40) −5.0%; (listed as ATV 80) −4.8%. Moreover, the “Calculated LDL-C LS mean (SE), % Change from Baseline” value is listed as −9.9 (3.4) % (Week 4, listed as ATV 40); −11.7 (2.7) % (Week 4, listed as ATV 80); −12.6 (3.8) % (Week 8, listed as ATV 40); −13.1 (3.1) % (Week 8, listed as ATV 80); −8.5 (3.9) % (Week 12, listed as ATV 40); −14.5 (3.2) % (Week 12, listed as ATV 80). For the same compound, the “Calculated LDL-C LS mean (SE), % Change from Baseline” value (Week 16, listed as ATV 40) is reported as −8.2 (3.9) %; the “Calculated LDL-C LS mean (SE), % Change from Baseline” value (Week 16, listed as ATV 80) is recorded as −8.0 (3.4) %; the “Calculated LDL-C LS mean (SE), % Change from Baseline” value (Week 24, listed as ATV 40) is listed as −5.0 (4.6) %; the “Calculated LDL-C LS mean (SE), % Change from Baseline” value (Week 24, listed as ATV 80) is recorded as −4.8 (4.2) %. Also, the “Calculated LDL-C LS mean (SE), Change from Baseline” value was −12.9 (3.6) (Week 4, listed as ATV 40); −15.3 (2.9) (Week 4, listed as ATV 80); −15.1 (4.1) (Week 8, listed as ATV 40); −17.2 (3.2) (Week 8, listed as ATV 80); −11.9 (4.3) (Week 12, listed as ATV 40); −17.9 (3.4) (Week 12, listed as ATV 80). Besides, the “Calculated LDL-C LS mean (SE), Change from Baseline” value runs as follows: (Week 16, listed as ATV 40) −10.9 (4.3); (Week 16, listed as ATV 80) −11.3 (3.8); (Week 24, listed as ATV 40) −7.9 (4.7); (Week 24, listed as ATV 80) −8.7 (4.5). Also, the “Calculated LDL-C LS mean (SE), Value (mg/dL)” value is, setting by setting: (Week 4, listed as ATV 40) 88.9 (3.6) mg/dL; (Week 4, listed as ATV 80) 93.4 (2.9) mg/dL; (Week 8, listed as ATV 40) 86.7 (4.1) mg/dL; (Week 8, listed as ATV 80) 91.5 (3.2) mg/dL; (Week 12, listed as ATV 40) 89.9 (4.3) mg/dL; (Week 12, listed as ATV 80) 90.8 (3.4) mg/dL. Moreover, the “Calculated LDL-C LS mean (SE), Value (mg/dL)” value by setting is: (Week 16, listed as ATV 40) 90.9 (4.3) mg/dL; (Week 16, listed as ATV 80) 97.4 (3.8) mg/dL; (Week 24, listed as ATV 40) 93.9 (4.7) mg/dL; (Week 24, listed as ATV 80) 100.0 (4.5) mg/dL. Moreover, the “reduced LDL-C levels by” value was found to be 5.0% (atorvastatin 20 mg regimen, add-on ezetimibe or doubling of atorvastatin dose) and 4.8% (atorvastatin 40 mg regimen, add-on ezetimibe, doubling of atorvastatin dose or switch to rosuvastatin 40 mg). Further, the “Proportion … (%)” value by setting is: (listed as ATV 40) 34.5%; (listed as ATV 80) 15.4%.
On to “mAb316P + ATV 20: treatment arm: mAb316P 75/150 mg Q2W + atorvastatin 20 mg daily”, for which the “LDL-C W24 % change … (SE)” value was −44.1% and the “Proportion … (%)” value is 87.2%. Also, under “Week 4”, the “Calculated LDL-C LS mean (SE), % Change from Baseline” value was −53.3 (3.4) %; the “Calculated LDL-C LS mean (SE), Change from Baseline” value is reported as −55.8 (3.5); the “Calculated LDL-C LS mean (SE), Value (mg/dL)” value is listed as 46.0 (3.5) mg/dL. Further, under “Week 8”, the “Calculated LDL-C LS mean (SE), % Change from Baseline” value is reported as −51.2 (3.8) %; the “Calculated LDL-C LS mean (SE), Change from Baseline” value is given as −51.4 (4.1); the “Calculated LDL-C LS mean (SE), Value (mg/dL)” value is 50.4 (4.1) mg/dL. Also, under “Week 12”, the “Calculated LDL-C LS mean (SE), % Change from Baseline” value is reported as −48.4 (3.8) %; the “Calculated LDL-C LS mean (SE), Change from Baseline” value is listed as −49.0 (4.2); the “Calculated LDL-C LS mean (SE), Value (mg/dL)” value is 52.8 (4.2) mg/dL. For the same compound, for the setting “Week 16”, the “Calculated LDL-C LS mean (SE), % Change from Baseline” value is −53.8 (3.9) %; the “Calculated LDL-C LS mean (SE), Change from Baseline” value is on record as −54.8 (4.3); the “Calculated LDL-C LS mean (SE), Value (mg/dL)” value is 47.0 (4.3) mg/dL. For the same compound, where the note is “Week 24”, the “Calculated LDL-C LS mean (SE), % Change from Baseline” value was −44.1 (4.5) %; the “Calculated LDL-C LS mean (SE), Change from Baseline” value is −47.5 (4.7); the “Calculated LDL-C LS mean (SE), Value (mg/dL)” value is reported as 54.3 (4.7) mg/dL.

(Values after US20150231236A1, “METHODS FOR TREATING PATIENTS WITH HYPERCHOLESTEROLEMIA THAT IS NOT ADEQUATELY CONTROLLED BY MODERATE-DOSE STATIN THERAPY” (Regeneron Pharmaceuticals, Inc., priority 2014, published 2015).)
